Assay results as given in patent publication US12473289B2, “Heterocyclic compounds as delta-5 desaturase inhibitors and methods of use” (Amgen Inc., priority 2019, dated 2025).

Target: Delta-5-Desaturase (D5D) (Homo sapiens (Human), UniProt O60427)
Experiment: In vitro measurement of Delta-5-Desaturase inhibitory activity using DGLA-CoA and Arachidonyl-CoA mass spectrometric assays
Type: biochemical
Conditions: membrane preparations of D5D-overexpressing HEK293 6E cells; averaged over at least two independent runs
Description: In vitro Measurement of Delta-5-Desaturase Inhibitory Activity using DGLA-CoA and Arachidonyl-CoA Mass Spectrometric Assays
Membrane preparations of D5D-overexpressing HEK293 6E cells were prepared in which the total protein concentration was 5.6 mg/mL. Stock D5D membrane preparations were diluted in D5D assay buffer (25 mM 2-amino-2-(hydroxymethyl)-1,3-propanediol, pH 7.5 containing 10 mM MgCl2, 1 mM octyl glucoside (SigmaAldrich 0-8001), 1 mM tris(2-carboxyethyl)phosphine hydrochloride (SigmaAldrich 646547)) to a final D5D membrane concentration of 10 μg/mL in an assay plate containing serially diluted test compounds. To 15 μL of this D5D preparation was added 15 μL of a substrate solution (0.25 mM NADH (nicotinamide adenine dinucleotide, Roche Diag. 10107735001), 0.25 mM adenosine triphosphate (SigmaAldrich A-3377), 0.05 mM coenzyme A hydrate (SigmaAldrich C-4282), and 0.01 mM DGLA (dihomo-g-linolenic acid, Sigma E-4504) in the same D5D assay buffer. After one-hour incubation at ambient temperature acetonitrile (30 μL) was added to quench the reaction and plates were centrifuged for 10 min @3,000 rpm. Mass spectrometric analysis involved a Rapidfire 360 SPE system coupled to an ABSciex API4000 Triple Quadrupole mass spectrometer using a C18 SPE cartridge (G9203-80105) with ionization in negative mode (solvent A=100% water; solvent B=100% acetonitrile, each solvent containing 5 mM ammonium acetate). DGLA-CoA and Arachidonyl-CoA were detected by multiple reaction monitoring (MRM) of the doubly charged parent ions at m/z 526.6 and 525.6, respectively.
Sx is value from unknown sample, So is value from DMSO alone and Sc is value from no enzyme well. For CRC analysis, the % of inhibitions were analyzed with 4 Parameter Logistic Model or Sigmoidal Dose-Response Model using XLfit (IDBS, Guilford, UK). The potency of the test item was expressed as IC50 nM, corresponding to the test item concentration able to inhibit the 50% of the enzyme maximal response. IC50 values were averaged values determined by at least two independent runs.
This assay may be used to test any of the compounds described herein to assess and characterize a compound's ability to inhibit D5D.

Sequence of Delta-5-Desaturase (D5D) (O60427 whole entry, species assumed): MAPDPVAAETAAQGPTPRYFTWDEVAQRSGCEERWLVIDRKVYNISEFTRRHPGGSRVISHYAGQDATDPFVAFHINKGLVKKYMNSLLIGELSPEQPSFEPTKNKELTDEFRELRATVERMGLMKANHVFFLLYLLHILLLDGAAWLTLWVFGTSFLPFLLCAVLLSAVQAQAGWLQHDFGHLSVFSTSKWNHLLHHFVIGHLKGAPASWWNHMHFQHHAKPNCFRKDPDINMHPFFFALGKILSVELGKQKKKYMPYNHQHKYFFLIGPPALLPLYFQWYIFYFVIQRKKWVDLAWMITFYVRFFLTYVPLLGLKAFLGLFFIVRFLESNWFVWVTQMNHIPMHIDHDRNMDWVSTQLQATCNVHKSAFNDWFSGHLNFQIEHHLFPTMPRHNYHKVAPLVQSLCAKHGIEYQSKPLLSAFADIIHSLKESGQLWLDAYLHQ

Structure (SMILES)	IC50
[2H]C([2H])([2H])Oc1ccn2c(=O)c(-c3ccc(OCCF)cc3)c(C(F)(F)F)nc2c1 [Example 1-51, 3-(4-(2-fluoroethoxy)phenyl)-8-(methyloxy-d3)-2-(trifluoromethyl)-4H-pyrido[1,2-a]pyrimidin-4-one]	0.0266 µM
[2H]C([2H])([2H])Oc1ccn2c(=O)c(-c3ccc(OCC(F)F)cc3)c(C(F)(F)F)nc2c1 [Example 1-52, 3-(4-(2,2-difluoroethoxy)phenyl)-8-(methyloxy-d3)-2-(trifluoromethyl)-4H-pyrido[1,2-a]pyrimidin-4-one]	0.0056 µM
COc1ccn2c(=O)c(-c3ccc(OCC(F)(F)F)cc3F)c(C(F)(F)F)nc2n1 [Example 1-53, 3-(2-fluoro-4-(2,2,2-trifluoroethoxy)phenyl)-8-methoxy-2-(trifluoromethyl)-4H-pyrimido[1,2-a]pyrimidin-4-one]	0.0085 µM
COc1ccn2c(=O)c(-c3ccc(OC(F)F)cc3)c(C(F)(F)F)nc2c1 [Example 1-54, 3-(4-(difluoromethoxy)phenyl)-8-methoxy-2-(trifluoromethyl)-4H-pyrido[1,2-a]pyrimidin-4-one]	0.0066 µM
[2H]C([2H])([2H])Oc1ccn2c(=O)c(-c3ccc(OCCF)cc3)c(C(F)(F)F)nc2n1 [Example 1-55, 3-(4-(2-fluoroethoxy)phenyl)-8-(methyloxy-d3)-2-(trifluoromethyl)-4H-pyrimido[1,2-a]pyrimidin-4-one]	0.112 µM
O=c1ccn2c(=O)c(-c3ccc(OCCF)cc3)c(C(F)(F)F)nc2[nH]1 [Example 1-56, 7-(4-(2-fluoroethoxy)phenyl)-8-(trifluoromethyl)-2H-pyrimido[1,2-a]pyrimidine-2,6(1H)-dione]	9.28 µM
COc1ccn2c(=O)c(-c3ccc(OCCF)cc3)c(C(F)(F)F)nc2n1 [Example 1-57, 3-(4-(2-fluoroethoxy)phenyl)-8-methoxy-2-(trifluoromethyl)-4H-pyrimido[1,2-a]pyrimidin-4-one]	0.226 µM
CCc1nc2cc(OC)ccn2c(=O)c1-c1ccc(OCC(F)(F)F)nc1 [Example 1-60, 2-ethyl-8-methoxy-3-(6-(2,2,2-trifluoroethoxy)-3-pyridinyl)-4H-pyrido[1,2-a]pyrimidin-4-one]	0.0378 µM
[2H]C([2H])([2H])Oc1ccn2c(=O)c(-c3cnn(CCC(F)(F)F)c3)c(C(F)(F)F)nc2c1 [Example 1-61, 8-(methyloxy-d3)-2-(trifluoromethyl)-3-(1-(3,3,3-trifluoropropyl)-1H-pyrazol-4-yl)-4H-pyrido[1,2-a]pyrimidin-4-one]	0.0114 µM
[2H]C([2H])([2H])Oc1ccn2c(=O)c(-c3cnn(CCCC(F)(F)F)c3)c(C(F)(F)F)nc2c1 [Example 1-63, 8-(methyloxy-d3)-3-(1-(4,4,4-trifluorobutyl)-1H-pyrazol-4-yl)-2-(trifluoromethyl)-4H-pyrido[1,2-a]pyrimidin-4-one]	0.0281 µM
[2H]C([2H])([2H])Oc1ccn2c(=O)c(-c3ccc(OCC(F)(F)F)nc3)c(C(F)(F)F)nc2c1 [Example 1-64, 8-(methyloxy-d3)-3-(6-(2,2,2-trifluoroethoxy)-3-pyridinyl)-2-(trifluoromethyl)-4H-pyrido[1,2-a]pyrimidin-4-one]	0.0215 µM
[2H]C([2H])([2H])Oc1ccn2c(=O)c(-c3ccc(OCC4CC4)cc3)c(C(F)(F)F)nc2c1 [Example 1-65, 3-(4-(cyclopropylmethoxy)phenyl)-8-(methyloxy-d3)-2-(trifluoromethyl)-4H-pyrido[1,2-a]pyrimidin-4-one]	0.0032 µM
O=c1c(-c2ccc(OCC(F)(F)F)cc2)c(C(F)(F)F)nc2cc(OC(F)F)ccn12 [Example 1-66, 8-(difluoromethoxy)-3-(4-(2,2,2-trifluoroethoxy)phenyl)-2-(trifluoromethyl)-4H-pyrido[1,2-a]pyrimidin-4-one]	0.0791 µM
COc1ccn2c(=O)c(-c3ccc(OCC(F)(F)F)cc3)c(C)nc2c1 [Example 1-67, 8-methoxy-2-methyl-3-(4-(2,2,2-trifluoroethoxy)phenyl)-4H-pyrido[1,2-a]pyrimidin-4-one]	0.0342 µM
COc1ccn2c(=O)c(-c3cnn(-c4ccc(C(F)(F)F)cc4)c3)c(C(F)(F)F)nc2c1 [Example 1-71, 8-methoxy-2-(trifluoromethyl)-3-(1-(4-(trifluoromethyl)phenyl)-1H-pyrazol-4-yl)-4H-pyrido[1,2-a]pyrimidin-4-one]	4.88 µM
COc1ccn2c(=O)c(-c3cnn(CC(F)(F)F)c3)c(C(F)(F)F)nc2c1 [Example 1-74, 8-methoxy-3-(1-(2,2,2-trifluoroethyl)-1H-pyrazol-4-yl)-2-(trifluoromethyl)-4H-pyrido[1,2-a]pyrimidin-4-one]	0.0276 µM
CCCn1cc(-c2c(C(F)(F)F)nc3cc(OC)ccn3c2=O)cn1 [Example 1-76, 8-methoxy-3-(1-propyl-1H-pyrazol-4-yl)-2-(trifluoromethyl)-4H-pyrido[1,2-a]pyrimidin-4-one]	0.0176 µM
Cc1ccn2c(=O)c(-c3ccc(OCC(F)(F)F)cc3)c(C(F)(F)F)nc2c1 [Example 1-78, 8-methyl-3-(4-(2,2,2-trifluoroethoxy)phenyl)-2-(trifluoromethyl)-4H-pyrido[1,2-a]pyrimidin-4-one]	0.0027 µM
CCCc1ccc(-c2c(C(F)(F)F)nc3cc(OC)ccn3c2=O)cc1 [Example 1-79, 8-methoxy-3-(4-propylphenyl)-2-(trifluoromethyl)-4H-pyrido[1,2-a]pyrimidin-4-one]	0.0036 µM
CC(=O)Nc1ccn2c(=O)c(-c3cnn(CC(F)(F)C(F)(F)F)c3)c(C(F)(F)F)nc2c1 [Example 1-82, N-(4-oxo-3-(1-(2,2,3,3,3-pentafluoropropyl)-1H-pyrazol-4-yl)-2-(trifluoromethyl)-4H-pyrido[1,2-a]pyrimidin-8-yl)acetamide]	0.056 µM
CCc1ccn2c(=O)c(-c3ccc(OCC(F)(F)F)cc3)c(C(F)(F)F)nc2c1 [Example 2-1, 8-Ethyl-3-(4-(2,2,2-trifluoroethoxy)phenyl)-2-(trifluoromethyl)-4H-pyrido[1,2-a]pyrimidin-4-one]	0.0226 µM

More lines, now with the values ahead:

IC50	Structure (SMILES)
0.0057 µM	COc1ccn2c(=O)c(-c3ccc(OC[C@H]4CC4(F)F)cc3)c(C(F)(F)F)nc2c1 [Example 1-83, 3-(4-(((1R)-2,2-Difluorocyclopropyl)methoxy)phenyl)-8-methoxy-2-(trifluoromethyl)-4H-pyrido[1,2-a]pyrimidin-4-one]
0.148 µM	N#Cc1ccn2c(=O)c(-c3cnn(CC(F)(F)C(F)(F)F)c3)c(C(F)F)nc2c1 [Example 1-85, 2-(difluoromethyl)-4-oxo-3-(1-(2,2,3,3,3-pentafluoropropyl)-1H-pyrazol-4-yl)-4H-pyrido[1,2-a]pyrimidine-8-carbonitrile]
0.134 µM	N#Cc1ccn2c(=O)c(-c3cnn(CC(F)(F)C(F)(F)F)c3)c(CF)nc2c1 [Example 1-86, 2-(fluoromethyl)-4-oxo-3-(1-(2,2,3,3,3-pentafluoropropyl)-1H-pyrazol-4-yl)-4H-pyrido[1,2-a]pyrimidine-8-carbonitrile]
0.0859 µM	O=c1c(-c2cnn(CC(F)(F)C(F)(F)F)c2)c(C(F)(F)F)nc2cc(C3CC3)ccn12 [Example 1-87, 8-cyclopropyl-3-(1-(2,2,3,3,3-pentafluoropropyl)-1H-pyrazol-4-yl)-2-(trifluoromethyl)-4H-pyrido[1,2-a]pyrimidin-4-one]
2.35 µM	O=c1c(-c2cnn(CC(F)(F)C(F)(F)F)c2)c(C(F)(F)F)nc2cc(N3CCC3)ccn12 [Example 1-88, 8-(1-azetidinyl)-3-(1-(2,2,3,3,3-pentafluoropropyl)-1H-pyrazol-4-yl)-2-(trifluoromethyl)-4H-pyrido[1,2-a]pyrimidin-4-one]
0.646 µM	O=C(O)c1ccn2c(=O)c(-c3ccc(OCC(F)(F)F)cc3)c(C(F)(F)F)nc2c1 [Example 2-2, 4-oxo-3-(4-(2,2,2-trifluoroethoxy)phenyl)-2-(trifluoromethyl)-4H-pyrido[1,2-a]pyrimidine-8-carboxylic acid]
0.0884 µM	O=c1c(-c2ccc(OCC(F)(F)F)cc2)c(C(F)(F)F)nc2cc(F)ccn12 [Example 2-3, 8-fluoro-3-(4-(2,2,2-trifluoroethoxy)phenyl)-2-(trifluoromethyl)-4H-pyrido[1,2-a]pyrimidin-4-one]
0.0574 µM	COc1ccn2c(=O)c(-c3cnn(CCC(F)(F)F)c3)c(C(F)(F)F)nc2n1 [Example 2-4, 8-methoxy-2-(trifluoromethyl)-3-(1-(3,3,3-trifluoropropyl)-1H-pyrazol-4-yl)-4H-pyrimido[1,2-a]pyrimidin-4-one]
0.0039 µM	[2H]C([2H])([2H])c1ccn2c(=O)c(-c3ccc(OCC(F)(F)F)cc3)c(C(F)(F)F)nc2c1 [Example 2-5, 8-(methyl-d3)-3-(4-(2,2,2-trifluoroethoxy)phenyl)-2-(trifluoromethyl)-4H-pyrido[1,2-a]pyrimidin-4-one]
